Assay results published in PubChem BioAssay (NCI).
“And” between values parts separate entries of the source, which are not always exact repeats. Equal entries are not always repeated.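 How tested: cells in 96-well plates exposed to compound for 48 hours at five concentrations. GI50 marks 50% less growth. Definition used: TGI = concentration required for complete inhibition of growth.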

Experiments:
Assay in all cases: NCI tumour cell line growth inhibition, 48 h
[1] = system: XF 498 CNS
[2] = system: SNB-78 CNS
[3] = system: HOP-18 NSCLC
[4] = system: DMS 114 small cell lung
[5] = system: M19-MEL melanoma
[6] = system: DLD-1 colon
[7] = system: RXF-631 renal
[8] = system: T-47D breast
[9] = system: MDA-N
[10] = system: P388 leukemia
[11] = system: P388/ADR leukemia
[12] = system: SN12K1 renal

| Compound | TGI [1] | TGI [2] | TGI [3] | TGI [4] | TGI [5] | TGI [6] | TGI [7] | TGI [8] | TGI [9] | GI50 [5] | GI50 [8] | TGI [10] | TGI [11] | TGI [12] | GI50 [1] | GI50 [2] | GI50 [6] | GI50 [9] |
| --- | --- | --- | --- | --- | --- | --- | --- | --- | --- | --- | --- | --- | --- | --- | --- | --- | --- | --- |
| CCOC(=O)C(Br)=C1OC(=O)c2ccccc2-c2ccccc21 (mixture of isomers) | 38.5 µM | 52.3 µM | 51.4 µM | 32.2 µM | 31 µM | 36.4 µM | 49.9 µM |  |  |  |  |  |  |  |  |  |  |  |
| CCCCCCCCCCCC[N+]12CC[N+](CCN)(CC1)CC2 | > 100 µM | > 100 µM | > 100 µM | > 100 µM | > 100 µM | > 100 µM | > 100 µM |  |  |  |  |  |  |  |  |  |  |  |
| CC12c3ccccc3C(OC=O)(c3ccccc31)C1(C)c3ccccc3C2(OC=O)c2ccccc21 |  | > 100 µM | > 100 µM | > 100 µM | > 100 µM | > 100 µM | > 100 µM |  |  |  |  |  |  |  |  |  |  |  |
| CC1=C(C(=O)Nc2ccccc2)C(c2ccc(Cl)c(Cl)c2)C(C(=O)Nc2ccccc2)=C(C)N1 | 30.6 µM | 53.8 µM |  | 24.8 µM | 25.6 µM | 25.7 µM | 27.7 µM |  |  |  |  |  |  |  |  |  |  |  |
| COc1ccc(/C=C\c2cc(OC)c(OC)c(OC)c2)cc1OCC(=O)O |  | > 100 µM | > 100 µM | > 100 µM | > 100 µM | > 90.2 µM | > 100 µM | > 100 µM | 13.5 µM |  |  |  |  |  |  |  |  |  |
| CCOc1ccc(OCC(=O)O)c2c1CCCC2=O | > 100 µM | > 100 µM |  | > 100 µM | > 100 µM | > 100 µM | > 100 µM |  |  |  |  |  |  |  |  |  |  |  |
| O=c1[nH]c(=O)n(C2CC(O)C(CO)O2)cc1OS(=O)(=O)C(F)(F)F (stereo not given) | > 100 µM |  | > 100 µM | > 100 µM | > 100 µM | > 100 µM | > 100 µM |  |  |  |  |  |  |  |  |  |  |  |
| Cc1cc2c(cc1C)[n+](=O)cc(C(=O)C/C(=N/NC(=S)NN)C(=O)Nc1cccc(C(F)(F)F)c1)n2[O-] |  | > 100 µM | > 100 µM | > 100 µM | > 100 µM | > 100 µM | > 100 µM |  |  |  |  |  |  |  |  |  |  |  |
| Cc1nc2c(N)ncnc2o1 |  | > 100 µM | > 100 µM | > 100 µM | > 100 µM | > 100 µM | > 100 µM |  |  |  |  |  |  |  |  |  |  |  |
| CC(C)=CCC1=C(O)c2ccccc2C(=O)C1=O | > 100 µM | > 100 µM | > 100 µM | > 100 µM | > 100 µM |  | > 100 µM | > 100 µM | > 100 µM | 48.5 µM and 20.8 µM |  |  |  |  |  |  |  |  |
| O=C1C=C(Nc2ccc(Cl)cc2C(=O)c2ccccc2)c2ccccc2C1=O | > 100 µM | > 100 µM | > 100 µM | > 100 µM |  | > 100 µM | > 100 µM |  |  |  |  |  |  |  |  |  |  |  |
| Nc1nc(Cl)nc2c1ncn2C1CC(O)C(CO)O1 (stereo not given) |  | > 100 µM | > 100 µM |  | > 100 µM | > 100 µM |  | > 100 µM |  |  | 5.75 µM | 0.498 µM | > 100 µM | > 24.9 µM |  |  |  |  |
| O/N=C1\CCCCC1C(NO)c1ccccc1 (stereo not given) |  | > 100 µM | > 100 µM | > 100 µM | > 100 µM | > 100 µM | > 100 µM |  |  |  |  |  |  |  |  |  |  |  |
| CC(C)C1CN(C(=O)OCc2ccccc2)C2N1C(=O)C2(C)OCc1ccccc1 (stereo not given) | 33.5 µM |  |  | > 100 µM | > 100 µM | > 100 µM | > 100 µM |  |  |  |  |  |  |  |  |  |  |  |
| NC(=S)N/N=C/c1ncccc1O | 39.7 µM and 5.52 µM | > 1000 µM | 141 µM |  | 16.9 µM and 39.7 µM | > 774 µM |  | > 823 µM | > 853 µM | 3.48 µM |  | 1.26 µM | > 1000 µM | 13.7 µM | 4.88 µM | 64.7 µM | 3.79 µM | 1.9 µM |
| O=C1c2cccc3cccc(c23)C(=O)N1CCN(CCO)CCO | 66.5 µM | > 100 µM | > 100 µM |  | 43.8 µM | > 100 µM | > 100 µM |  |  |  |  |  |  |  |  |  |  |  |
